Assay type in all cases: functional
The subject of one assay is Clostridioides difficile. Description: Antibacterial activity against Clostridium difficile CD196 assessed as growth inhibition after 20 to 24 hrs.
In another assay the test system is Escherichia coli. The assay is described as follows: Antibacterial activity against Escherichia coli ATCC 700927 assessed as growth inhibition after 20 to 24 hrs.
Assay [1] deals with Bacteroides thetaiotaomicron. The assay is described as follows: Antibacterial activity against Bacteroides thetaiotaomicron ATCC 29148 assessed as growth inhibition after 20 to 24 hrs.
A further assay deals with Staphylococcus aureus. Description: Antibacterial activity against Staphylococcus aureus 8325-4 assessed as growth inhibition after 20 to 24 hrs.
The test system of another assay is Bacteroides fragilis. Description: Antibacterial activity against Bacteroides fragilis ATCC 25285 assessed as growth inhibition after 20 to 24 hrs. The following applies: NCTC 9343.
Assay [2] concerns Limosilactobacillus reuteri. Description: Antibacterial activity against Lactobacillus reuteri ATCC 23272 assessed as growth inhibition after 20 to 24 hrs.
The subject of a further assay is Bifidobacterium longum. The assay is described as follows: Antibacterial activity against Bifidobacterium longum ATCC BAA-999 assessed as growth inhibition after 20 to 24 hrs.
In the next assay the test system is Streptococcus mutans. Description: Antibacterial activity against Streptococcus mutans ATCC 700610 assessed as growth inhibition after 20 to 24 hrs.
The subject of another assay is Enterococcus faecalis. Description: Antibacterial activity against Enterococcus faecalis ATCC 47077 assessed as growth inhibition after 20 to 24 hrs.
The test system of another assay is Lacticaseibacillus casei. The assay is described as follows: Antibacterial activity against Lactobacillus casei ATCC 334 assessed as growth inhibition after 20 to 24 hrs.
For another assay, the system named is Clostridium perfringens. The assay is described as follows: Antibacterial activity against Clostridium perfringens ATCC 13124 assessed as growth inhibition after 20 to 24 hrs.

≈ marks a conversion by molar mass, not a printed value.

For `NC(=O)N/N=C/c1c(O)ccc2ccccc12`, the minimum inhibitory concentration (MIC) in the assay on Clostridioides difficile was > 50 µg/mL.
Take `Cc1cc(C(=O)N/N=C/c2c(O)ccc3ccccc23)c2cc(Br)ccc2n1`: the MIC (with Escherichia coli; in assay [1]; in the assay with Staphylococcus aureus; in the assay with Bacteroides fragilis; in the assay on Clostridioides difficile; in assay [2]) was > 50 µg/mL throughout. Besides, the MIC in the assay on Bifidobacterium longum was > 50 µg/mL; with Streptococcus mutans it was > 50 µg/mL; in the assay on Enterococcus faecalis it was > 50 µg/mL; in the assay on Lacticaseibacillus casei it was > 50 µg/mL; in the assay with Clostridium perfringens, 25 µg/mL (≈ 57.6 µM).
With `Oc1c(Cl)c(Cl)c(Cl)c(Cl)c1Cl` [PENTACHLOROPHENOL], the MIC with Escherichia coli is > 50 µg/mL; in assay [1] it was 6.25 µg/mL (≈ 23.5 µM); with Staphylococcus aureus, < 0.78 µg/mL; in the assay on Bacteroides fragilis it was 6.25 µg/mL (≈ 23.5 µM); with Clostridioides difficile, 50 µg/mL (≈ 188 µM); in assay [2], 50 µg/mL (≈ 188 µM). Further, the MIC was 12.5 µg/mL (≈ 46.9 µM) in the assay on Bifidobacterium longum; 25 µg/mL (≈ 93.9 µM) with Streptococcus mutans; > 50 µg/mL with Enterococcus faecalis; 50 µg/mL (≈ 188 µM) in the assay with Lacticaseibacillus casei; 6.25 µg/mL (≈ 23.5 µM) with Clostridium perfringens.
`COc1cccc(/C=N/NC(=O)c2ccc(C)cc2)c1O`: the MIC in the assay with Escherichia coli is > 50 µg/mL; in assay [1], > 50 µg/mL; in the assay on Staphylococcus aureus, > 50 µg/mL; in the assay with Bacteroides fragilis it was > 50 µg/mL; with Clostridioides difficile, 12.5 µg/mL (≈ 44 µM); in [2] it was > 50 µg/mL. In addition, the minimal inhibitory concentration (MIC) in the assay with Bifidobacterium longum is > 50 µg/mL; in the assay with Streptococcus mutans, 1.56 µg/mL (≈ 5.49 µM); in the assay with Enterococcus faecalis, > 50 µg/mL; in the assay on Lacticaseibacillus casei, > 50 µg/mL; in the assay with Clostridium perfringens it was 6.25 µg/mL (≈ 22 µM).
As to `O=C(N/N=C/c1c(O)ccc2ccccc12)c1ccc([N+](=O)[O-])cc1`, the MIC in the assay on Clostridioides difficile is > 50 µg/mL.
As to `O=C(N/N=C/c1c(O)ccc2ccccc12)c1cc2ccccc2cc1O`, the MIC with Clostridioides difficile came to 12.5 µg/mL (≈ 35.1 µM).
As to `Cc1cccc(/C=N/NC(=O)c2ccc(-c3ccccc3)cc2)c1`, the MIC with Clostridioides difficile is > 50 µg/mL.
On to `Oc1ccc2ccccc2c1/C=N/Nc1ccccc1`, for which the MIC in the assay on Clostridioides difficile is > 50 µg/mL.
Turning to `Cc1cc(C(=O)N/N=C/c2ccc([N+](=O)[O-])o2)[nH]n1`, the MIC in the assay on Escherichia coli is 12.5 µg/mL (≈ 47.5 µM); in [1], ≤ 3.13 µg/mL; with Staphylococcus aureus it was 1.56 µg/mL (≈ 5.93 µM); in the assay with Bacteroides fragilis, ≤ 3.13 µg/mL; in the assay on Clostridioides difficile it was 0.78 µg/mL (≈ 2.96 µM); in [2], 12.5 µg/mL (≈ 47.5 µM). Moreover, the MIC in the assay with Bifidobacterium longum is ≤ 0.78 µg/mL; in the assay with Streptococcus mutans, 1.56 µg/mL (≈ 5.93 µM); in the assay on Enterococcus faecalis, 12.5 µg/mL (≈ 47.5 µM); in the assay with Lacticaseibacillus casei it was 6.25 µg/mL (≈ 23.7 µM); in the assay with Clostridium perfringens it was ≤ 12.5 µg/mL.
Turning to `O=C(N/N=C/c1c(O)ccc2ccccc12)c1cc([N+](=O)[O-])cc([N+](=O)[O-])c1`, the MIC with Clostridioides difficile is > 50 µg/mL.
Consider `Cc1ccc(C(=O)N(C)/N=C/c2c(O)ccc3ccccc23)cc1`, for which the MIC (in the assay on Escherichia coli; in assay [1]; in the assay with Staphylococcus aureus; in the assay on Bacteroides fragilis; with Clostridioides difficile; in assay [2]) was > 50 µg/mL each time. Moreover, the MIC in the assay with Bifidobacterium longum, with Streptococcus mutans, with Enterococcus faecalis, in the assay with Lacticaseibacillus casei and in the assay on Clostridium perfringens was > 50 µg/mL each time.
Turning to `O=C(NCc1ccccc1)c1ccc(-c2ccccc2)cc1`, the MIC with Clostridioides difficile was > 50 µg/mL.
As for `O=C(N/N=C/c1c(O)ccc2ccccc12)c1ccc(Cl)cc1`, the MIC was > 50 µg/mL in the assay on Escherichia coli; 12.5 µg/mL (≈ 38.5 µM) in assay [1]; > 50 µg/mL in the assay with Staphylococcus aureus; 12.5 µg/mL (≈ 38.5 µM) in the assay on Bacteroides fragilis; 6.25 µg/mL (≈ 19.2 µM) in the assay on Clostridioides difficile; > 50 µg/mL in assay [2]. Moreover, the MIC was > 50 µg/mL with Bifidobacterium longum; > 50 µg/mL with Streptococcus mutans; > 50 µg/mL in the assay with Enterococcus faecalis; > 50 µg/mL in the assay with Lacticaseibacillus casei; ≤ 0.78 µg/mL in the assay on Clostridium perfringens.
With `COc1cccc(/C=N/NC(=O)c2cc(C)n[nH]2)c1O`, the MIC (with Escherichia coli; in [1]; with Staphylococcus aureus; in the assay on Bacteroides fragilis; in the assay on Clostridioides difficile; in [2]) was > 50 µg/mL in each case. The MIC in the assay with Bifidobacterium longum, in the assay with Streptococcus mutans, in the assay with Enterococcus faecalis, with Lacticaseibacillus casei and in the assay with Clostridium perfringens was > 50 µg/mL each time.
As for `O/N=C/c1c(O)ccc2ccccc12`, the MIC in the assay on Clostridioides difficile is > 50 µg/mL.
Same read-out and setting: as for `O=C(NNC(=O)c1ccc(-c2ccccc2)cc1)c1ccc(-c2ccccc2)cc1`, the figure is > 50 µg/mL; as for `O=C(N/N=C/c1c(O)ccc2ccccc12)c1cccc([N+](=O)[O-])c1`, > 50 µg/mL.
Take `O=[N+]([O-])c1ccc(O)c([N+](=O)[O-])c1` [2,4-DINITROPHENOL]: the MIC in the assay on Escherichia coli is > 50 µg/mL; in [1], 25 µg/mL (≈ 136 µM); in the assay with Staphylococcus aureus, 25 µg/mL (≈ 136 µM); with Bacteroides fragilis, 12.5 µg/mL (≈ 67.9 µM); in the assay on Clostridioides difficile, 50 µg/mL (≈ 272 µM); in assay [2], > 50 µg/mL. In addition, the MIC in the assay with Bifidobacterium longum is 25 µg/mL (≈ 136 µM); in the assay on Streptococcus mutans, > 50 µg/mL; in the assay with Enterococcus faecalis, > 50 µg/mL; in the assay on Lacticaseibacillus casei, > 50 µg/mL; in the assay on Clostridium perfringens it was > 50 µg/mL.
With `Cc1ccc(C(=O)N/N=C/c2ccc(O)c3ccccc23)cc1`, the MIC (in the assay with Escherichia coli; in assay [1]; in the assay on Staphylococcus aureus; in the assay on Bacteroides fragilis; in the assay with Clostridioides difficile; in assay [2]) was > 50 µg/mL throughout. Besides, the minimal inhibitory concentration (MIC) in the assay on Bifidobacterium longum, in the assay with Streptococcus mutans, in the assay with Enterococcus faecalis, with Lacticaseibacillus casei and with Clostridium perfringens was > 50 µg/mL in each case.
In the case of `COc1cccc(/C=N/NC(=O)c2cc(C)nc3ccc(Br)cc23)c1`, the MIC (with Escherichia coli; in [1]; in the assay with Staphylococcus aureus; in the assay on Bacteroides fragilis; in the assay on Clostridioides difficile; in assay [2]) was > 50 µg/mL throughout. Besides, the MIC in the assay with Bifidobacterium longum, in the assay on Streptococcus mutans, in the assay on Enterococcus faecalis, with Lacticaseibacillus casei and in the assay with Clostridium perfringens was > 50 µg/mL in each case.
Turning to `Cc1ccc(C(=O)N/N=C/c2cccc3ccccc23)cc1`, the MIC (with Escherichia coli; in assay [1]; with Staphylococcus aureus; in the assay with Bacteroides fragilis; in the assay with Clostridioides difficile; in [2]) was > 50 µg/mL each time. Also, the MIC in the assay on Bifidobacterium longum, in the assay on Streptococcus mutans, in the assay with Enterococcus faecalis, with Lacticaseibacillus casei and with Clostridium perfringens was > 50 µg/mL throughout.
Consider `O=C(CO)N/N=C/c1cccc2ccccc12`, for which, in the assay on Clostridioides difficile, the MIC was > 50 µg/mL.
For `O=C(N/N=C/c1c(O)ccc2ccccc12)c1cccc(Br)c1`, the minimum inhibitory concentration (MIC) in the assay with Clostridioides difficile was determined as 6.25 µg/mL (≈ 16.9 µM).
In the case of `COc1cccc(/C=N/NC(=O)c2cc(C)nc3ccc(Br)cc23)c1O`, the MIC is > 50 µg/mL with Escherichia coli; > 50 µg/mL in assay [1]; > 50 µg/mL with Staphylococcus aureus; > 50 µg/mL in the assay with Bacteroides fragilis; 6.25 µg/mL (≈ 15.1 µM) with Clostridioides difficile; > 50 µg/mL in assay [2]. For the same molecule, the MIC in the assay on Bifidobacterium longum is > 50 µg/mL; in the assay with Streptococcus mutans, > 50 µg/mL; in the assay on Enterococcus faecalis, > 50 µg/mL; with Lacticaseibacillus casei, > 50 µg/mL; in the assay on Clostridium perfringens, 6.25 µg/mL (≈ 15.1 µM).
Turning to `O=C(N/N=C/c1c(OCc2cccc(Br)c2)ccc2ccccc12)c1ccccc1`, the MIC in the assay with Clostridioides difficile is > 50 µg/mL.
Still for that read-out and setting: in the case of `O=C(N/N=C/c1c(O)ccc2ccccc12)c1ccccc1` it was 6.25 µg/mL (≈ 21.5 µM); in that of `CC(=O)N/N=C/c1ccccc1`, > 50 µg/mL.

As usually defined, the MIC is the lowest concentration found to suppress growth.

Values taken from ChEMBL document CHEMBL3102722, “Diarylacylhydrazones: Clostridium-selective antibacterials with activity against stationary-phase cells” (Bioorg Med Chem Lett, 2014).
